This passage reports IC50 and Ki results from ChEMBL document CHEMBL1150032, “-hydroxy- and -ketoester functionalized thrombin inhibitors” (Bioorg Med Chem Lett, 1992).

What is called IC50 is the midpoint of a concentration-inhibition curve. As a reminder, the Ki is the equilibrium dissociation constant of an inhibitor or competing ligand from its target.

SMILES strings stand for the structures. Some results are limits rather than exact numbers.

In assay [1] the target is T1, Prothrombin (Homo sapiens, UniProt P00734). Kind of assay: Inhibitory concentration against thrombin when incubated with the compound for 3 min.
Assay [2] can be described thus: Inhibitory concentration required to double thrombin clotting time in batch 2. It counts as functional, Homo sapiens.
For assay [3], the target named is T1, Prothrombin. Kind of assay: Inhibitory concentration against thrombin when incubated with the compound for 3 min in batch 2.
Assay [4] has as its target T1, Prothrombin. The assay can be described thus: Inhibitory concentration against thrombin when incubated with the compound for 3 min in batch 1.
A short description of assay [5]: Inhibitory concentration required to double thrombin clotting time in batch 1. The format is functional, Homo sapiens.
A short description of assay [6]: Inhibitory concentration required to double thrombin clotting time. The format is functional, Homo sapiens.
The target of assay [7] is T1, Prothrombin. Kind of assay: Overall Inhibitory constant against thrombin was determined.

For the compound `COC(=O)C(O)[C@H](CCCCN=C(N)N)NC(=O)[C@@H]1CCCN1C(=O)[C@H](N)Cc1ccccc1` (stereo not given in full), at Prothrombin [1], the IC50 was 48 µM. That is a double-digit micromolar value.

In the case of `COC(=O)[C@@H](O)[C@H](CCCCN)NC(=O)[C@@H]1CCCN1C(=O)[C@H](N)Cc1ccccc1`, the IC50 was greater than 300 µM in assay [2], 20.2 µM against Prothrombin [3], 30.5 µM at Prothrombin [4] and greater than 300 µM in assay [5].

Regarding `NC(N)=NCCC[C@@H](C=O)NC(=O)[C@@H]1CCCN1C(=O)[C@H](N)Cc1ccccc1`, the IC50 in assay [6] came to 0.4 µM; against Prothrombin [1], 0.049 µM.

Compound `COC(=O)C(O)(OC)C(CCCCN)NC(=O)[C@@H]1CCCN1C(=O)[C@H](N)Cc1ccccc1` (stereo not given in full) displayed a Ki at Prothrombin [7] of 0.0017 µM. In addition, the IC50 in assay [6] came to 0.39 µM; against Prothrombin [1], 0.032 µM.
